Experimental data reported in paper PMC4508061, “Selectivity Profiling and Biological Activity of Novel β-Carbolines as Potent and Selective DYRK1 Kinase Inhibitors” (PLoS ONE, 2015).
Read-outs that look alike come from different tables or passages of the source.

Legend:
CLK2 = biological target: T1, CLK2 (Homo sapiens, UniProt P49760); settings: cited from earlier work
T1 construct: purchased ProQinase (Freiburg, Germany)

CLK3 = biological target: T2, CLK3 (Homo sapiens, UniProt P49761); settings: cited from earlier work
T2 construct: purchased ProQinase (Freiburg, Germany)

DYRK1A [1] = settings: cited from earlier work
DYRK2 [2] = biological target: T3, DYRK2 (Homo sapiens, UniProt Q92630); settings: cited from earlier work
T3 construct: purchased ProQinase (Freiburg, Germany)
T3 sequence (Q92630 1-601): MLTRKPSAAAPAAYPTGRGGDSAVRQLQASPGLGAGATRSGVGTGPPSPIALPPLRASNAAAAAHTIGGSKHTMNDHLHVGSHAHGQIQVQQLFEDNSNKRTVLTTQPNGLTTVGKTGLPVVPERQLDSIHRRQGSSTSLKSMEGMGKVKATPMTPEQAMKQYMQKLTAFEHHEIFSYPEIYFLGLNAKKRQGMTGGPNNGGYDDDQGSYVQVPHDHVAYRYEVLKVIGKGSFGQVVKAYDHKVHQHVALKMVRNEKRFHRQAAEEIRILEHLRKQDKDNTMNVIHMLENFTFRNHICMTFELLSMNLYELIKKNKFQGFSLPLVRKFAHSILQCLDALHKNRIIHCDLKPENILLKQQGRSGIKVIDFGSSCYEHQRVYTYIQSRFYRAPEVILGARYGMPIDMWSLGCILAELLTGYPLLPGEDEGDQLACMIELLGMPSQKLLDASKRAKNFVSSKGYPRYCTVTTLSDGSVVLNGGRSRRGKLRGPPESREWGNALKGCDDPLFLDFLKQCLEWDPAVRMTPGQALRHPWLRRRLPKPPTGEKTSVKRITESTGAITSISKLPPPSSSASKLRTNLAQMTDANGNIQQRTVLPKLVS

DYRK3 = biological target: T4, DYRK3 (Homo sapiens, UniProt O43781); settings: cited from earlier work
T4 construct: purchased ProQinase (Freiburg, Germany)
T4 sequence (O43781 1-588): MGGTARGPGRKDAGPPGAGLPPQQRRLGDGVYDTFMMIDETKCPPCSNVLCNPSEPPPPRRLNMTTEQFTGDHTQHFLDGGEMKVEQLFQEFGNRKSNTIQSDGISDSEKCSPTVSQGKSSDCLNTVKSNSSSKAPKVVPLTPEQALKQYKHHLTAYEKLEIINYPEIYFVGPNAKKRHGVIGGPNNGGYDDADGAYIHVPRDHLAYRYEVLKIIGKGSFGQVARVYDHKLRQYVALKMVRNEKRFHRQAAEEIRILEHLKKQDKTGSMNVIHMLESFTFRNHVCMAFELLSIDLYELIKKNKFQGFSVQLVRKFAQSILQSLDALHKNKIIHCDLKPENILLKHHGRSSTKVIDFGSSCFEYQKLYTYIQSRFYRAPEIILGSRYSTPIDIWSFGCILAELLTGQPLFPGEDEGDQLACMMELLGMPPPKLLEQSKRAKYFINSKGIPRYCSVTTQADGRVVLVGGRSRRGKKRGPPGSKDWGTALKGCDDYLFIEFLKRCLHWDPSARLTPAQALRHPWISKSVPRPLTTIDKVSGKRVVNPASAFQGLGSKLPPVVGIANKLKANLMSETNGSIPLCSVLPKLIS

DYRK4 = biological target: T5, DYRK4 (Homo sapiens, UniProt Q9NR20); settings: cited from earlier work
T5 construct: purchased ProQinase (Freiburg, Germany)

CLK1 [3] = biological target: T6, CLK1 (Homo sapiens, UniProt P49759); set-up: purchased ProQinase (Freiburg, Germany); settings: cited from earlier work
HIPK1 = HIPK1 (Homo sapiens, UniProt Q86Z02); set-up: purchased ProQinase (Freiburg, Germany); settings: cited from earlier work
PIM1 = PIM1 (Homo sapiens, UniProt P11309); set-up: purchased ProQinase (Freiburg, Germany); settings: cited from earlier work
DYRK1B [4] = biological target: T7, DYRK1B (Homo sapiens, UniProt Q9Y463); set-up: purchased ProQinase (Freiburg, Germany); settings: cited from earlier work
HIPK4 = biological target: T8, HIPK4 (Homo sapiens, UniProt Q8NE63); set-up: purchased ProQinase (Freiburg, Germany); settings: cited from earlier work
T8 sequence (Q8NE63 1-616): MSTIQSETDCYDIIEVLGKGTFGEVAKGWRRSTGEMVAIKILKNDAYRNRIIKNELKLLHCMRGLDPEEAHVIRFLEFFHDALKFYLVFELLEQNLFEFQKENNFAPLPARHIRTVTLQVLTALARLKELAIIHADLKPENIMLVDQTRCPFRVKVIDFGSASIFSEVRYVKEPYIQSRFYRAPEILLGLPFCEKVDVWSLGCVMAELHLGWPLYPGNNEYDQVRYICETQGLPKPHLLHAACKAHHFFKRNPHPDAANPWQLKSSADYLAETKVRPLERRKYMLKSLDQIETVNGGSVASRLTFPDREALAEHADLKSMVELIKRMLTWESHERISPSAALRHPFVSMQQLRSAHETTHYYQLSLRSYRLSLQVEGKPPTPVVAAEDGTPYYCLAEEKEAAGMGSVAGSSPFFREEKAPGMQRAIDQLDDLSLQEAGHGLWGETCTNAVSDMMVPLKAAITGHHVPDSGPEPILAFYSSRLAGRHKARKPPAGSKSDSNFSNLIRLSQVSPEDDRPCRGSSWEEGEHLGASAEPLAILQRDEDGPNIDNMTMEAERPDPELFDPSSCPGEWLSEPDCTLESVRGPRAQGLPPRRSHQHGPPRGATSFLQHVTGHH

PIM2 = PIM2 (Homo sapiens, UniProt Q9P1W9); set-up: purchased ProQinase (Freiburg, Germany); settings: cited from earlier work
DYRK1A [5] = biological target: T9, DYRK1A (Homo sapiens, UniProt Q13627); experiment: Kinase-GLO luminescent kinase assay; assay type: biochemical; settings: 1 μM compound; means of at least 3 measurements
T9 construct: purchased ProQinase (Freiburg, Germany)
Method: (§1) Bacterial expression plasmids for GST-DYRK1A-ΔC and GST-DYRK2 have been described earlier. […] Expression in logarithmically growing E. coli culture was performed for 3 h at 37°C (GST-DYRK1A-ΔC and GST-DYRK2), 3 h at 26°C (GST-HIPK2cat), over night at 28°C (GST-CLK1cat) or over night at room temperature (GST-DYRK1Bcat).
(§2) Compounds were screened for inhibitory effects against GST-DYRK1A-ΔC, GST-DYRK1Bcat, GST-DYRK2, GST-CLK1cat or GST-HIPK2cat using the Kinase-GLO Luminescent Kinase Assay from Promega. Assays were performed in a total volume of 10 μL in kinase-buffer (25 mM Hepes pH 7.4, 0.5 mM DTT, 5 mM MgCl2, 5 μM ATP) with appropriate peptide substrates (20 μM DYRKtide for the DYRKs and 100 μM DYRKtide for HIPK2, […]; or 100 μM RS domain-derived peptide for CLK1, […]). Assays were started with this amount of a kinase preparation that consumed approximately 90% of the ATP in the assay (linear range of the kinase titration curve). The reactions were run at room temperature for 30 min before 10 μL Kinase-GLO reagent was added. After incubation at room temperature for additional 10 min, luminescence was recorded for 1 s.

DYRK2 [6] = biological target: T3, DYRK2; experiment: Kinase-GLO luminescent kinase assay; assay type: biochemical; settings: 1 μM compound; means of at least 3 measurements
Method: as §1, §2

Haspin = settings: ref Cuny et al. 38; cited from earlier work
CLK1 [7] = biological target: T6, CLK1; experiment: Kinase-GLO luminescent kinase assay; assay type: biochemical; set-up: made in house; host or cells: E. coli; settings: 1 μM compound; means of at least 3 measurements
Method: as §1, §2

DYRK1B [8] = biological target: T7, DYRK1B; experiment: Kinase-GLO luminescent kinase assay; assay type: biochemical; set-up: made in house; host or cells: E. coli; settings: 1 μM compound; means of at least 3 measurements
Method: as §1, §2

HIPK2 [9] = biological target: T10, HIPK2 (Homo sapiens, UniProt Q9H2X6); experiment: Kinase-GLO luminescent kinase assay; assay type: biochemical; set-up: made in house; host or cells: E. coli; settings: 10 μM compound; means of at least 3 measurements
Method: as §1, §2

HIPK2 [10] = biological target: T10, HIPK2; set-up: purchased ProQinase (Freiburg, Germany); settings: cited from earlier work
HIPK3 = HIPK3 (Homo sapiens, UniProt Q9H422); set-up: purchased ProQinase (Freiburg, Germany); settings: cited from earlier work
IRAK1 = IRAK1 (Homo sapiens, UniProt P51617); set-up: purchased ProQinase (Freiburg, Germany); settings: 10 μM; cited from earlier work
PIM3 = PIM3 (Homo sapiens, UniProt Q86V86); set-up: purchased ProQinase (Freiburg, Germany); settings: cited from earlier work

Chain of HIPK1 (Q86Z02 whole entry): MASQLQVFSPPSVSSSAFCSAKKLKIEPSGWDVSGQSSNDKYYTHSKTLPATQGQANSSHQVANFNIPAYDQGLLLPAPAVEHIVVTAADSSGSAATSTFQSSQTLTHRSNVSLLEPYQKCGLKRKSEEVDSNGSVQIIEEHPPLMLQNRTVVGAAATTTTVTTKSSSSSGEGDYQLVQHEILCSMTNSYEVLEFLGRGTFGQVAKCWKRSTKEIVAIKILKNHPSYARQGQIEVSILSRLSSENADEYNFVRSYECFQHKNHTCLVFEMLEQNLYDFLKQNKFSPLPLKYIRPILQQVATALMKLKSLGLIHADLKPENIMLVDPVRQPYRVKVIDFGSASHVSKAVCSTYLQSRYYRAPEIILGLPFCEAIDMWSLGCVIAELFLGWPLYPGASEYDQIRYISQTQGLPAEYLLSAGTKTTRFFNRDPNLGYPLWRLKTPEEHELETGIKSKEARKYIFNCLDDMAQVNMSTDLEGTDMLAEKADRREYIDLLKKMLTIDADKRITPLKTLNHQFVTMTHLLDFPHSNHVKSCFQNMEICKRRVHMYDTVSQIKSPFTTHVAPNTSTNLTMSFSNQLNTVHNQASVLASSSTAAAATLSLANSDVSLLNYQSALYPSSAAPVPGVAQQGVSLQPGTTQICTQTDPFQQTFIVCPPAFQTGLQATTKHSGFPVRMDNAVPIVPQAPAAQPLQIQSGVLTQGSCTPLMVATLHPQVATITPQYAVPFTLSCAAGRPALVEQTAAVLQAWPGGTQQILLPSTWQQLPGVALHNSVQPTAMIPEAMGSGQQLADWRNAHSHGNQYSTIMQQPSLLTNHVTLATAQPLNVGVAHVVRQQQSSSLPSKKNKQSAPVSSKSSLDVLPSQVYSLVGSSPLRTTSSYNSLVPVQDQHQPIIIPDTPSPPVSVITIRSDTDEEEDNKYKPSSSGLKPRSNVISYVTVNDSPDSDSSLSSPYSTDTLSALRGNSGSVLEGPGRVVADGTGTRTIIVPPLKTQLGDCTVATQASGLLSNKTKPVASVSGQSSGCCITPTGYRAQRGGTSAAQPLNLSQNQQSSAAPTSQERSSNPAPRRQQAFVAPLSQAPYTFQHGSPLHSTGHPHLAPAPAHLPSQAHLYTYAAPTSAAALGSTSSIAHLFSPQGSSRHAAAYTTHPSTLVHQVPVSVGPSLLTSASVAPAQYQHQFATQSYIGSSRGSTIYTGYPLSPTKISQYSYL
Chain of PIM2 (Q9P1W9 whole entry): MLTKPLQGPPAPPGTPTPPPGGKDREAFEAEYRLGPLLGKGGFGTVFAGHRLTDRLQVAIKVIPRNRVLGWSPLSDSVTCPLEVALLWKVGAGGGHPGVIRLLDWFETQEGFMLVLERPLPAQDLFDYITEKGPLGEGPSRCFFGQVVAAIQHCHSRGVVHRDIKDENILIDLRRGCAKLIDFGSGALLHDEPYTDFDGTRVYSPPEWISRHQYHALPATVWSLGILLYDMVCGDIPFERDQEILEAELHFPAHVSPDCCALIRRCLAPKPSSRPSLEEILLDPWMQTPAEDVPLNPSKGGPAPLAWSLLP
Chain of PIM1 (P11309 whole entry): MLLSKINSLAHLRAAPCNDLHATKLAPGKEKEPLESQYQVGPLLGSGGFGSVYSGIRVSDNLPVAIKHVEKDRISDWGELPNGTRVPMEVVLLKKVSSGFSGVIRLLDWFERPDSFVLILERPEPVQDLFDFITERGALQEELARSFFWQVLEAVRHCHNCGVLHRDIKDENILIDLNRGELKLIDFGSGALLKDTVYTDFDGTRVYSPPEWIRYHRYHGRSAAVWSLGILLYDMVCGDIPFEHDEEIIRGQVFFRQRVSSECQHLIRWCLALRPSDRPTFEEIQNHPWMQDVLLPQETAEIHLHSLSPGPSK
Chain of HIPK3 (Q9H422 whole entry): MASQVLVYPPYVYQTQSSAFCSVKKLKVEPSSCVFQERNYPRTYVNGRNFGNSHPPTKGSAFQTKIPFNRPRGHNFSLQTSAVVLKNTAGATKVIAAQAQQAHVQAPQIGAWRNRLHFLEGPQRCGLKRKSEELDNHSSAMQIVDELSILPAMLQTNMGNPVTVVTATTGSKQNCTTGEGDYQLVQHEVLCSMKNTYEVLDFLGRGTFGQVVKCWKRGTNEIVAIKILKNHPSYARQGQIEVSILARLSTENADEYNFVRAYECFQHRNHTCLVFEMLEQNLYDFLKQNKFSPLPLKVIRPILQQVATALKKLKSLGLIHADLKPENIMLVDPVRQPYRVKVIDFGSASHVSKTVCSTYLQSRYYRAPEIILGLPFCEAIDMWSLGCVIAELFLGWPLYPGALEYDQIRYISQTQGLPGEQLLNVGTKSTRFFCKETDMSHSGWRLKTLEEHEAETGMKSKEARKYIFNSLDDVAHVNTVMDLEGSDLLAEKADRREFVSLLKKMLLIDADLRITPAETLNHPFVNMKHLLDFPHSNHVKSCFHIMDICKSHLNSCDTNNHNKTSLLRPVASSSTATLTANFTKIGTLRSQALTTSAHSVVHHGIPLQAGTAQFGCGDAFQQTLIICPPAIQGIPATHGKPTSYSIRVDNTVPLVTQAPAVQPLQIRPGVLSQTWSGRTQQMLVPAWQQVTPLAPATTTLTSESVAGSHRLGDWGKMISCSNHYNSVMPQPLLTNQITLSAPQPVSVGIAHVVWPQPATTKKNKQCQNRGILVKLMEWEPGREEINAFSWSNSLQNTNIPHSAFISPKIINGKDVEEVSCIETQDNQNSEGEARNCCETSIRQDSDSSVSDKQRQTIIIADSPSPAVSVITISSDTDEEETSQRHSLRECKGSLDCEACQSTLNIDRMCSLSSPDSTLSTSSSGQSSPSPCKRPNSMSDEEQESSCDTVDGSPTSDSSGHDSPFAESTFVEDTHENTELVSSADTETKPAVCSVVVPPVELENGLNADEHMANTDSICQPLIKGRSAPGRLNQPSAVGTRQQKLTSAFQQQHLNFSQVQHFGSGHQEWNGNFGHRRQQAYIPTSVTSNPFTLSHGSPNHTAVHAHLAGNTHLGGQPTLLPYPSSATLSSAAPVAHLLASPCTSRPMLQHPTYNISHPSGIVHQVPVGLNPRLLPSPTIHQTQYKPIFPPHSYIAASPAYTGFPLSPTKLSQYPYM
T5 sequence (Q9NR20 whole entry): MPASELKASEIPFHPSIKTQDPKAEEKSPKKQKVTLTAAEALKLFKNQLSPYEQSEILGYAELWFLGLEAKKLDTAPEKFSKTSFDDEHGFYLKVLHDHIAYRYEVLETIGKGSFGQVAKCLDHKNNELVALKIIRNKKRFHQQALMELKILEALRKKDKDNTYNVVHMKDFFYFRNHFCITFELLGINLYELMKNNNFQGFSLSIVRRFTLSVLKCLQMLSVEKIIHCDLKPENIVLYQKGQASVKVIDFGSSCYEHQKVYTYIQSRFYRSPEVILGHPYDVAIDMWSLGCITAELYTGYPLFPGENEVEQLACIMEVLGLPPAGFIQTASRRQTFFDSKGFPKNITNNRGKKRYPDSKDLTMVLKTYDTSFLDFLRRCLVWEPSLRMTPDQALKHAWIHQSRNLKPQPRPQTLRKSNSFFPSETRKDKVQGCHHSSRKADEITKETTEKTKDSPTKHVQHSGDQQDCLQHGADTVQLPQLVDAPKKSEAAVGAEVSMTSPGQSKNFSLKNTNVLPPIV
T1 sequence (P49760 whole entry): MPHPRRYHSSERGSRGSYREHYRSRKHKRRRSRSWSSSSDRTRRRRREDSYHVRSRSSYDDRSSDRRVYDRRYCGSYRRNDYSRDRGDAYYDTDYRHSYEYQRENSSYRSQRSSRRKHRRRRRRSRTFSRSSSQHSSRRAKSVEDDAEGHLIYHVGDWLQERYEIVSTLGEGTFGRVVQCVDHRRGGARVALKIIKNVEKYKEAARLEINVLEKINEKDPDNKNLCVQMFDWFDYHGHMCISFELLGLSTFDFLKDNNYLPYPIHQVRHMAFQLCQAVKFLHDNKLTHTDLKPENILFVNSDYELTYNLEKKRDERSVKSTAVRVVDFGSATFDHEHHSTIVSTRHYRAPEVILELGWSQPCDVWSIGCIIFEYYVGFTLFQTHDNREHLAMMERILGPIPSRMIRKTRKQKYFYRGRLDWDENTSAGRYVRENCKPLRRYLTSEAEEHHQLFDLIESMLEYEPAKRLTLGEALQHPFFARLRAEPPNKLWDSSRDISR
T2 sequence (P49761 whole entry): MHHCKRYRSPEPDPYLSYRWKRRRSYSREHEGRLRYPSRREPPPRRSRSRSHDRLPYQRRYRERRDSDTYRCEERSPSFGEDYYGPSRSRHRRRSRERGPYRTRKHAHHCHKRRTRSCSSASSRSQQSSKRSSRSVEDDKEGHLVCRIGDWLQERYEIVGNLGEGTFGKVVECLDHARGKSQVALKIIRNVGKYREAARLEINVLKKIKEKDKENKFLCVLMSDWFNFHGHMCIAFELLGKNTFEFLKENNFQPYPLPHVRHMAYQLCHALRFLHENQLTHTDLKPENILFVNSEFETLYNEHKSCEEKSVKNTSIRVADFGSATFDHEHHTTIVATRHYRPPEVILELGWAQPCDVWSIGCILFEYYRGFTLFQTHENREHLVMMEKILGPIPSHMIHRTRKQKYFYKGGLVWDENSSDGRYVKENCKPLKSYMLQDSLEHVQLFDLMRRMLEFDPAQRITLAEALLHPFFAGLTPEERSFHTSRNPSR

CCN1/C(=C/C(C)=O)Sc2ccc(O)cc21 [INDY]
Residual activity (% of control) (CLK2; 10 μM): 12 % of control | Residual activity (% of control) (CLK3; 10 μM): 30 % of control | IC50 (DYRK1A [1]; given because %-activity values are not given in the reference, read-out: IC50): […] | Residual activity (% of control) (DYRK2 [2]; 10 μM): 3 % of control | Residual activity (% of control) (DYRK3; 10 μM): 0 % of control | Residual activity (% of control) (DYRK4; 10 μM): 13 % of control | Residual activity (% of control) (CLK1 [3]; 10 μM): 1 % of control | Residual activity (% of control) (HIPK1; 10 μM): 64 % of control | Residual activity (% of control) (PIM1; 10 μM): 2 % of control

c1ccc(-c2cc(-c3cncs3)cs2)cc1 [Thiophene 29]
Residual activity (% of control) (CLK2; 5 μM): 28 % of control | Residual activity (% of control) (CLK3; 5 μM): 88 % of control | Residual activity (% of control) (DYRK1A [1]; 5 μM): 10 % of control | Residual activity (% of control) (DYRK2 [2]; 5 μM): 7 % of control | Residual activity (% of control) (DYRK3; 5 μM): 34 % of control | Residual activity (% of control) (DYRK4; 5 μM): 87 % of control | Residual activity (% of control) (CLK1 [3]; 5 μM): 4 % of control | Residual activity (% of control) (DYRK1B [4]; 5 μM): 0 % of control | Residual activity (% of control) (HIPK1; 5 μM): 96 % of control | Residual activity (% of control) (HIPK4; 5 μM): 93 % of control | Residual activity (% of control) (PIM1; 5 μM): 78 % of control | Residual activity (% of control) (PIM2; 5 μM): 93 % of control

COc1ccc2c(c1)[nH]c1c(C)nccc12 [Harmine, harmine]
Residual activity (% of control) DYRK1A (DYRK1A [5]): 27 % of control | Residual activity (% of control) DYRK2 (DYRK2 [6]): 92 % of control | Residual activity (% of control) (DYRK1A [1]; 1 μM): […] | Residual activity (% of control) (DYRK1A [1]; 10 μM): […] | IC50 (DYRK1A [1]; range of published values, read-out: Inhibition of DYRK1A IC50): […] | Residual activity (% of control) (DYRK2 [2]; 1 μM): 35 % of control | Residual activity (% of control) (DYRK2 [2]; 10 μM): 61 % of control | IC50 (Haspin): 590 nM | Residual activity (% of control) CLK1 (CLK1 [7]): 23 % of control | Residual activity (% of control) DYRK1B (DYRK1B [8]): 11 % of control | Residual activity (% of control) HIPK2 (HIPK2 [9]): 79 % of control | Residual activity (% of control) (CLK1 [3]; 10 μM): 0 % of control | Residual activity (% of control) (DYRK1B [4]; 10 μM): 2 % of control | Residual activity (% of control) (HIPK1; 1 μM): 119 % of control | Residual activity (% of control) (HIPK1; 10 μM): 14 % of control | Residual activity (% of control) (HIPK2 [10]; 1 μM): 68 % of control | Residual activity (% of control) (HIPK2 [10]; 10 μM): 34 % of control | Residual activity (% of control) (HIPK3; 1 μM): 118 % of control | Residual activity (% of control) (HIPK3; 10 μM): 44 % of control | Residual activity (% of control) (HIPK4; 10 μM): 90 % of control | Residual activity (% of control) (IRAK1): 66 % of control | Residual activity (% of control) (PIM1; 1 μM): 74 % of control | Residual activity (% of control) (PIM1; 10 μM): 85 % of control | Residual activity (% of control) (PIM2; 1 μM): 101 % of control | Residual activity (% of control) (PIM2; 10 μM): 43 % of control | Residual activity (% of control) (PIM3; 1 μM): 74 % of control | Residual activity (% of control) (PIM3; 10 μM): 78 % of control
